16 compounds from US20130269064A1, “INSECTICIDAL COMPOUNDS” (SYNGENTA PARTICIPATIONS AG, priority 2010, published 2013) can be followed below.

Common to all, as to format: in vivo
The test system of one experiment is Diabrotica balteata. Kind of experiment: Diabrotica balteata (corn root worm) artificial diet test. The following applies: 120 h, 200 ppm (concentration in well 18 ppm), L2 larvae, 5 days, larval mortality and growth regulation. How it is done:
Diabrotica balteata (Corn Root Worm): A 24-well microtiter plate (MTP) with artificial diet was treated with test solutions at an application rate of 200 ppm (concentration in well 18 ppm) by pipetting. After drying, the MTP's were infested with larvae (L2) (6-10 per well). After an incubation period of 5 days, samples were checked for larval mortality, and growth regulation.

For another experiment, the system named is Heliothis virescens. Kind of experiment: Heliothis virescens (tobacco budworm) egg/artificial diet test. The following applies: 96 h, 200 ppm (concentration in well 18 ppm), eggs 0-24 h old on artificial diet, 4 days, egg mortality, larval mortality, growth regulation. As to the method: Heliothis virescens (Tobacco Budworm): Eggs (0-24 h old) were placed in 24-well microtiter plate on artificial diet and treated with test solutions at an application rate of 200 ppm (concentration in well 18 ppm) by pipetting. After an incubation period of 4 days, samples were checked for egg mortality, larval mortality and growth regulation.

The next experiment deals with Spodoptera littoralis. Put plainly: Spodoptera littoralis (Egyptian cotton leafworm) cotton leaf disc test. The following applies: foliar, 72 h, 200 ppm sprayed on cotton leaf discs, 5 L1 larvae, mortality, feeding behaviour, growth regulation 3 DAT. The text has this:
Spodoptera littoralis (Egyptian Cotton Leafworm): Cotton leaf discs were placed on agar in a 24-well microtiter plate and sprayed with test solutions at an application rate of 200 ppm. After drying, the leaf discs were infested with 5 L1 larvae. The samples were checked for mortality, feeding behaviour, and growth regulation 3 days after treatment (DAT).

The next experiment relates to Plutella xylostella. Kind of experiment: Plutella xylostella (diamond back moth) artificial diet test. Conditions: 144 h, 200 ppm (concentration in well 18 ppm), L2 larvae, 6 days, larval mortality and growth regulation. How it is done:
Plutella xylostella (Diamond Back Moth): A 24-well microtiter plate (MTP) with artificial diet was treated with test solutions at an application rate of 200 ppm (concentration in well 18 ppm) by pipetting. After drying, the MTP's were infested with L2 larvae (7-12 per well). After an incubation period of 6 days, samples were checked for larval mortality and growth regulation.

SMILES strings stand for the structures. Where only a bound is given, the exact number is not on record here.

As for `Cn1nc(C(F)(F)C(F)(F)F)c(C(F)(F)F)c1NC(=O)c1ccc(Cl)c(NC(=O)c2ccc(C(F)(F)F)cc2)c1` [Compound E13], the pest or weed control at 200 ppm in the experiment on Diabrotica balteata and with Heliothis virescens was at least 80% throughout.

Turning to `Cn1nc(C(F)(F)C(F)(F)F)c(C(F)(F)F)c1NC(=O)c1cccc(NC(=O)c2cc(C(F)(F)F)ccc2F)c1` [Compound D23], the pest or weed control at 200 ppm with Spodoptera littoralis, with Diabrotica balteata and with Heliothis virescens was at least 80% throughout.

As to `Cn1nc(C(F)(F)C(F)(F)F)c(C(F)(F)F)c1NC(=O)c1cccc(NC(=O)c2ccc(F)cc2F)c1F` [Compound B22], the pest or weed control at 200 ppm in the experiment with Spodoptera littoralis, in the experiment on Plutella xylostella, with Diabrotica balteata and in the experiment with Heliothis virescens was at least 80% in each case.

`Cn1nc(C(F)(F)C(F)(F)F)c(C(F)(F)F)c1NC(=O)c1ccc(Cl)c(NC(=O)c2ccc([N+](=O)[O-])cc2)c1` [Compound E5]: the pest or weed control at 200 ppm with Plutella xylostella, in the experiment on Diabrotica balteata and in the experiment on Heliothis virescens was at least 80% throughout.

Regarding `Cn1nc(C(F)(F)C(F)(F)F)c(C(F)(F)F)c1NC(=O)c1cccc(NC(=O)c2ccccc2C(F)(F)F)c1` [Compound D18], the pest or weed control at 200 ppm with Spodoptera littoralis, in the experiment with Diabrotica balteata and in the experiment on Heliothis virescens was at least 80% throughout.

On to `Cn1nc(C(F)(F)C(F)(F)F)c(C(F)(F)F)c1NC(=O)c1cccc(NC(=O)c2ccccc2F)c1F` [Compound B1], for which the pest or weed control at 200 ppm in the experiment with Spodoptera littoralis, in the experiment with Plutella xylostella, in the experiment with Diabrotica balteata and in the experiment with Heliothis virescens was at least 80% throughout.

As for `Cn1nc(C(F)(F)C(F)(F)F)c(C(F)(F)F)c1NC(=O)c1ccc(Cl)c(NC(=O)c2ccccc2)c1` [Compound E16], the pest or weed control at 200 ppm with Spodoptera littoralis, in the experiment with Plutella xylostella, in the experiment on Diabrotica balteata and in the experiment with Heliothis virescens was at least 80% each time.

`Cn1nc(C(F)(F)C(F)(F)F)c(C(F)(F)F)c1NC(=O)c1cccc(NC(=O)c2ccc(OC(F)(F)F)cc2)c1` [Compound D11]: the pest or weed control at 200 ppm with Spodoptera littoralis, in the experiment on Plutella xylostella, with Diabrotica balteata and in the experiment with Heliothis virescens was at least 80% each time.

In the experiment with Spodoptera littoralis, `Cc1cc(C#N)ccc1C(=O)Nc1nc(C(=O)Nc2c(C(F)(F)F)c(C(F)(F)C(F)(F)F)nn2C)ccc1C#N` [Compound F1] yielded a pest or weed control at 200 ppm of at least 80%.

As for `Cn1nc(C(F)(F)C(F)(F)F)c(C(F)(F)F)c1NC(=O)c1ccc(Cl)c(NC(=O)c2cccc(F)c2F)c1` [Compound E21], the pest or weed control at 200 ppm in the experiment with Diabrotica balteata and with Heliothis virescens was at least 80% throughout.

Regarding `Cn1nc(C(F)(F)C(F)(F)F)c(C(F)(F)F)c1NC(=O)c1cccc(NC(=O)c2ccc(F)c(C(F)(F)F)c2)c1` [Compound D12], the pest or weed control at 200 ppm in the experiment on Diabrotica balteata and in the experiment on Heliothis virescens was at least 80% throughout.

Compound `Cn1nc(C(F)(F)C(F)(F)F)c(C(F)(F)F)c1NC(=O)c1cccc(NC(=O)c2ccccc2OC(F)(F)F)c1` [Compound D14] yielded a pest or weed control at 200 ppm in the experiment with Diabrotica balteata of at least 80%.

As for `Cn1nc(C(F)(F)C(F)(F)F)c(C(F)(F)F)c1NC(=O)c1cccc(NC(=O)c2ccccc2Cl)c1F` [Compound B3], the pest or weed control at 200 ppm in the experiment on Spodoptera littoralis, in the experiment on Plutella xylostella, with Diabrotica balteata and in the experiment on Heliothis virescens was at least 80% in each case.

In the case of `Cn1nc(C(F)(F)C(F)(F)F)c(C(F)(F)F)c1NC(=O)c1ccc(Cl)c(NC(=O)c2ccc(F)c(C(F)(F)F)c2)c1` [Compound E12], the pest or weed control at 200 ppm with Diabrotica balteata was at least 80%.

For `Cn1nc(C(F)(F)C(F)(F)F)c(C(F)(F)F)c1NC(=O)c1ccc(Cl)c(NC(=O)c2ccccc2C(F)(F)F)c1` [Compound E18], the pest or weed control at 200 ppm with Diabrotica balteata was at least 80%.

As for `Cc1ccccc1C(=O)Nc1cc(C(=O)Nc2c(C(F)(F)F)c(C(F)(F)C(F)(F)F)nn2C)ccc1Cl` [Compound E2], the pest or weed control at 200 ppm in the experiment with Spodoptera littoralis is at least 80%.
